Assay results as given in PubChem BioAssay (NCI).
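All cell lines were grown in 96-well plates and treated with compound for 48 hours. Abbreviation: GI50, concentration required for 50% inhibition of growth. Definition used: TGI = concentration required for complete inhibition of growth.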

How the values were obtained:
Test in all cases: NCI anticancer screen, dose series, 48 h
HCC-2998 colon = tested on: HCC-2998 colon
SK-MEL-2 melanoma = tested on: SK-MEL-2 melanoma
U251 CNS = tested on: U251 CNS
SF-539 CNS = tested on: SF-539 CNS
SK-OV-3 ovarian = tested on: SK-OV-3 ovarian
NCI-H23 lung = tested on: NCI-H23 lung
HOP-92 NSCLC = tested on: HOP-92 NSCLC
SK-MEL-28 melanoma = tested on: SK-MEL-28 melanoma
BT-549 breast = tested on: BT-549 breast
NCI/ADR-RES ovarian = tested on: NCI/ADR-RES ovarian

Row | Structure (SMILES) | TGI (HCC-2998 colon) [µM] | TGI (SK-MEL-2 melanoma) [µM] | TGI (U251 CNS) [µM] | TGI (SF-539 CNS) [µM] | TGI (SK-OV-3 ovarian) [µM] | TGI (NCI-H23 lung) [µM] | TGI (HOP-92 NSCLC) [µM] | TGI (SK-MEL-28 melanoma) [µM] | TGI (BT-549 breast) [µM] | TGI (NCI/ADR-RES ovarian) [µM] | GI50 (U251 CNS) [µM] | GI50 (SF-539 CNS) [µM] | GI50 (SK-OV-3 ovarian) [µM] | GI50 (NCI-H23 lung) [µM] | GI50 (HOP-92 NSCLC) [µM] | GI50 (SK-MEL-28 melanoma) [µM] | GI50 (HCC-2998 colon) [µM] | GI50 (NCI/ADR-RES ovarian) [µM]
1 | O=S1(=O)c2ccccc2N(O)C2=NCCN21 | > 100 | > 100 | > 100 | > 100 | > 100 | > 100 | > 100 | > 100 |  |  |  |  |  |  |  |  |  | 
2 | CC1=CCC2CC1C(C(=O)c1c[nH]c3ccccc13)=NC2(C)C (stereo not given) | > 100 |  | > 100 | > 100 | > 100 | > 100 |  | > 100 | > 100 | > 100 |  |  |  |  |  |  |  | 
3 | COc1ccc(C(=O)C2CCC(C(=O)O)C2)cc1 (stereo not given) | > 100 | > 100 | > 100 | > 100 | > 100 | > 100 | > 100 | > 100 |  |  |  |  |  |  |  |  |  | 
4 | CCCCCCCCCCCCSC(=S)c1c(C)[nH]n(-c2ccccc2)c1=O | 21.5 |  | > 50 | 33.9 | > 50 | 35.8 | > 50 | > 50 |  |  |  |  |  |  |  |  |  | 
5 | CSC(=O)C[C@@]12O[C@@H]([C@@H](C)C3CCC4[C@@H]5C(O)CC6=CC(=O)C=C[C@]6(C)C5CC[C@@]43C)C[C@](C)(O1)C(C)(C)O2 (stereo not given in full) | 41.6 | 45 | 25.2 | 30.7 | 42.6 |  | 23 | 32.1 |  |  |  |  |  |  |  |  |  | 
6 | CCN(CC)CCN(CC)CC.CCN(CC)CCN(CC)CC.[Cu+2].[Cu+2].[O-][Cl+3]([O-])([O-])[O-].[OH3+].[OH3+] |  |  | 32.1 | > 100 | 27.3 | 77.8 | > 100 | 45.5 |  |  | 17.2 | > 100 | 13.9 | 31.1 | > 100 | 22.1 |  | 
7 | CCOC(=O)C12CCCC1(O)N(NC(=O)OC)C(C)=C2C(=O)OC (stereo not given) | > 100 | 47.3 | > 100 | > 100 | > 100 | > 100 | > 100 | > 100 |  |  |  |  |  |  |  |  |  | 
8 | C=C(C)[C@@H]1CC[C@]2(CO)CC[C@]3(C)[C@H](CC[C@@H]4[C@@]5(C)CCCNC(C)(C)[C@@H]5CC[C@]43C)[C@@H]12 | 2.93 |  | 3.09 | 3.01 | 3.49 | 3.39 | 3.33 | 3.16 |  | 3.18 | 1.65 | 1.58 | 1.83 | 1.71 | 1.73 | 1.62 | 1.51 | 1.63
9 | CC(C)(C)C(=O)N1C(C(=O)O)Cc2ccccc2[C@@H]1Cc1ccccc1 (stereo not given in full) | > 100 | > 100 | > 100 | > 100 | > 100 | > 100 | > 100 | > 100 |  |  |  |  |  |  |  |  |  | 
10 | CSC(=NC(=O)c1ccccc1Cl)SCCSC(=NC(=O)c1ccccc1Cl)SC | > 100 | > 100 | > 100 | > 100 |  | > 100 | > 100 | > 100 |  |  |  |  |  |  |  |  |  | 
11 | CCOC(=O)c1ccc(-n2cnc(-c3ccc([N+](=O)[O-])cc3)c2)cc1 | > 100 | > 100 | > 100 | > 100 | > 100 | > 100 |  | > 100 | > 100 | > 100 |  |  |  |  |  |  |  | 
12 | Cc1cccc(-c2nnc3s/c(=C\c4ccc(N(C)C)cc4)c(=O)n23)c1 | > 100 | > 100 | > 100 | > 100 | > 100 | > 100 | > 100 | > 100 |  |  |  |  |  |  |  |  |  | 
13 | c1ccc(SC(Sc2ccccc2)=C2CCC2)cc1 |  | > 100 | > 100 | > 100 | > 100 | > 100 | > 100 | > 100 |  |  |  |  |  |  |  |  |  | 
14 | O=[N+]([O-])c1nccn1CC(O)c1ccccc1 (stereo not given) |  | > 100 | > 100 | > 100 | > 100 | > 100 | > 100 | > 100 |  |  |  |  |  |  |  |  |  | 
15 | CCOC(=O)C1(C(=O)OCC)C(C(C)(C)C)=C(C)c2ccccc21 | 31.2 | 37.6 | 30.1 | 32.8 | 69.5 | 30.4 | 16.7 | 26.2 |  |  |  |  |  |  |  |  |  | 
16 | Cc1ccc(NCC2(/N=C/c3ccccc3)OC(CO)C(O)C2O)cc1 (stereo not given) | > 100 | > 100 | 83.7 | > 100 |  | > 100 | > 100 | > 100 |  |  |  |  |  |  |  |  |  | 
17 | CN(C)c1ccc(/C=c2\sc3nnc(-c4ccco4)n3c2=O)cc1 | > 100 | > 100 | > 100 | > 100 | > 100 | > 100 | > 100 | > 100 |  |  |  |  |  |  |  |  |  | 
18 | O=C(C[n+]1ccccc1)N/N=C(/CCC(=O)N(Cc1ccccc1)Cc1ccccc1)CC(=O)c1ccccc1 | > 100 | > 100 | > 100 | > 100 |  | > 100 | > 100 | > 100 |  |  |  |  |  |  |  |  |  | 
